Measurements published in patent US12686686B2 (priority 2020, dated 2026).
Entries after “also recorded” stand apart in the source; their conditions may differ. Where two headings read alike, the source gives them in different places.

Experiments:
[1] = test system: C4-2B/ENZR; assay: Cytotoxic activity test (MTT) on C4-2B/ENZR prostate cancer cells; assay type: cell-based, human; details: C4-2B/ENZR cells
Procedure: (§1) All prostate cancer cells were cultured with a RPMI-1640 medium containing 10% calf serum, 100 units of penicillin per milliliter and 100 µg/mL of streptomycin in a constant temperature incubator containing 5% carbon dioxide at a saturated humidity of 37° C.
(§2) Cells in the logarithmic phase of growth were taken and cultured in 96-well plates for 24 hours (5×10^3 cells/well), then treated with different concentrations of the compounds to be tested, and incubated by MTT method for 4 hours. The supernatant was removed by centrifugation, the MTT crystals were dissolved by adding DMSO, and the absorbance value was measured by an enzyme-linked immunosorbent assay at a wavelength of 570 nm. The cytotoxic activity of the compounds to be tested on cancer cells was expressed as IC50.

[2] = test system: Vcap-CRPC; assay: Cytotoxic activity test (MTT) on Vcap-CRPC prostate cancer cells; assay type: cell-based, human; details: read-out: Prostate cancer cells IC50 Vcap-CRPC
Procedure: as §1, §2

[3] = test system: 22RV1; assay: Cytotoxic activity test (MTT) on 22RV1 prostate cancer cells; assay type: cell-based, human
Procedure: as §1, §2

[4] = test system: C4-2B; assay: Cytotoxic activity test (MTT) on C4-2B prostate cancer cells; assay type: cell-based, human; details: C4-2B cells
Procedure: as §1, §2

[5] = test system: RWPE-1; assay: Cytotoxic activity test (MTT) on normal human prostate cell RWPE-1; assay type: cell-based
Procedure: as §1, §2

[6] = test system: LNcap; assay: Cytotoxic activity test (MTT) on LNcap prostate cancer cells; assay type: cell-based, human; details: read-out: Prostate cancer cells IC50 LNcap
Procedure: as §1, §2

[7] = test system: prostate cancer cells; assay: Inhibitory activity on a variety of prostate cancer cells (Table 1); assay type: cell-based, human; details: structure-activity statements on Table 1
Procedure: as §1, §2

[8] = Homo sapiens, Vcap-CRPC cells, MTT
[9] = Homo sapiens, 22RV1 cells, MTT, read-out: Prostate cancer cells IC50 22RV1
[10] = normal human prostate cell RWPE-1, MTT, read-out: Normal cells RWPE-1 (IC50)
[11] = 22RV1 cells, MTT, read-out: Prostate cancer cells IC50 22RV1

With `COc1cccc2c1C(=O)c1c(O)c3c(c(O)c1C2=O)C[C@@](O)(C(=O)CO)C[C@@H]3O[C@H]1C[C@H](N)[C@H](O)[C@H](C)O1` [DOX, doxorubicin, reference compound] the IC50 ([1]; Homo sapiens) was 0.00287 µM, the IC50 [2, 8] was 0.0124 µM and the IC50 [3, 9] was 0.00599 µM. It also gave an IC50 ([4]; Homo sapiens) of 0.00104 µM and an IC50 [5, 10] of 0.0333 µM.
For `C=C(C)[C@@]12OC3(c4ccccc4)O[C@@H]1[C@@H]1[C@@H]4O[C@]4(CO)[C@@H](O)[C@]4(O)C(=O)C(C)=C[C@H]4[C@@]1(O3)[C@H](C)[C@H]2OC(=O)CCC` [YH-1], the IC50 [3, 11] was 0.00574 µM and the IC50 [5, 10] was 43.5 µM.
For `C=C(C)[C@@]12OC3(c4ccccc4)O[C@@H]1[C@@H]1[C@@H]4O[C@]4(CO)[C@@H](O)[C@]4(O)C(=O)C(C)=C[C@H]4[C@@]1(O3)[C@H](C)[C@H]2OC(=O)C(C)C` [YH-2], the IC50 [3, 11] was 0.0265 µM and the IC50 [5, 10] was 40.3 µM.
`C=C(C)[C@@]12OC3(c4ccccc4)O[C@@H]1[C@@H]1[C@@H]4O[C@]4(CO)[C@@H](O)[C@]4(O)C(=O)C(C)=C[C@H]4[C@@]1(O3)[C@H](C)[C@H]2OC(=O)CC` [YH-3] was tested, and the IC50 ([2]; Vcap-CRPC cells, MTT) was 0.00174 µM, the IC50 [3, 11] was 0.434 µM and the IC50 ([6]; LNcap cells, MTT) was 0.00377 µM. It also gave an IC50 [4] of 0.00895 µM and an IC50 [5, 10] of 57.2 µM.
In the case of `C=C(C)[C@@]12OC3(c4ccccc4)O[C@@H]1[C@@H]1[C@@H]4O[C@]4(COC(=O)CCCCCCCCCCCCCCC)[C@@H](O)[C@]4(O)C(=O)C(C)=C[C@H]4[C@@]1(O3)[C@H](C)[C@H]2OC(C)=O` [YH-5], the IC50 [1] is reported as 0.434 µM, the IC50 ([2]; Vcap-CRPC cells, MTT) is reported as 4.66 µM and the “inhibitory activity on prostate cancer cells (in words)” value (“inhibitory activity” for short) [7] is reported as “significant decrease in activity”. For the same compound, the IC50 [3, 11] was 44.5 µM, the IC50 ([6]; LNcap cells, MTT) was 0.0993 µM and the IC50 [4] was 0.904 µM. The IC50 [5, 10] was 72.8 µM.
Work on `C=C(C)[C@@]12OC3(c4ccccc4)O[C@@H]1[C@@H]1[C@@H]4O[C@]4(CO)[C@@H](O)[C@]4(O)C(=O)C(C)=C[C@H]4[C@@]1(O3)[C@H](C)[C@H]2OC(C)=O` [YH-6] yielded an IC50 ([1]; Homo sapiens) of 0.00234 µM, an IC50 [2, 8] of 0.0212 µM and an IC50 [3, 9] of 0.0525 µM. It also gave an IC50 ([6]; Homo sapiens, LNcap cells, MTT) of 0.00389 µM, an IC50 ([4]; Homo sapiens) of 0.000367 µM and an IC50 [5, 10] of 44.2 µM.
`C=C(C)[C@@]12OC3(c4ccccc4)O[C@@H]1[C@@H]1[C@@H]4O[C@]4(COC(=O)c4ccccc4)[C@@H](O)[C@]4(O)C(=O)C(C)=C[C@H]4[C@@]1(O3)[C@H](C)[C@H]2OC(C)=O` [YH-9] was tested, and the IC50 ([1]; Homo sapiens) was 1.46 µM, the “inhibitory activity” value [7] was “significant decrease in activity” and the IC50 ([4]; Homo sapiens) was 0.38 µM.
With `C=C(C)[C@@]12OC3(c4ccccc4)O[C@@H]1[C@@H]1[C@@H]4O[C@]4(CO)[C@@H](O)[C@]4(O)C(=O)C(C)=C[C@H]4[C@@]1(O3)[C@H](C)[C@H]2OC(=O)c1ccccc1` [YH-11] the “inhibitory activity” value [7] was “most prominent” and the IC50 [5, 10] was 13.4 µM.
With `C=C(C)[C@@]12OC3(c4ccccc4)O[C@@H]1[C@@H]1[C@@H]4O[C@]4(COC(C)=O)[C@@H](OC(C)=O)[C@]4(O)C(=O)C(C)=C[C@H]4[C@@]1(O3)[C@H](C)[C@H]2OC(=O)c1ccccc1` [YH-12] the IC50 ([1]; Homo sapiens) was 1.9 µM, the “inhibitory activity” value [7] was “significant decrease in activity” and the IC50 ([4]; Homo sapiens) was 0.557 µM.
In the case of `C=C(C)[C@@]12OC3(c4ccccc4)O[C@@H]1[C@@H]1[C@@H]4O[C@]4(COC(C)=O)[C@@H](O)[C@]4(O)C(=O)C(C)=C[C@H]4[C@@]1(O3)[C@H](C)[C@H]2OC(=O)c1ccccc1` [YH-13], the IC50 ([1]; Homo sapiens) is reported as 0.00679 µM, the IC50 [2, 8] is reported as 0.0672 µM and the IC50 [3, 9] is reported as 0.0832 µM. It also gave an IC50 ([6]; Homo sapiens, LNcap cells, MTT) of 0.00453 µM and an IC50 [5, 10] of 35.7 µM.
`C=C(C)[C@@]12OC3(/C=C/C=C/CCCCC)O[C@@H]1[C@@H]1[C@@H]4O[C@]4(CO)[C@@H](O)[C@]4(O)C(=O)C(C)=C[C@H]4[C@@]1(O3)[C@H](C)[C@H]2OC(=O)c1ccccc1` [YH-16] was tested, and the IC50 ([2]; Homo sapiens) was 0.0057 µM, the “inhibitory activity” value [7] was “more cytotoxic” and the IC50 ([3]; Homo sapiens, 22Rv1, read-out: Prostate cancer cells IC50 22RV1) was 0.0332 µM. For the same compound, the IC50 ([6]; Homo sapiens, LNCaP) was 0.00543 µM and the IC50 [5, 10] was 9.67 µM.
`C=C(C)[C@@]12OC3(/C=C/C=C/CCCCC)O[C@@H]1[C@@H]1[C@@H]4O[C@]4(COC(C)=O)[C@@H](O)[C@]4(O)C(=O)C(C)=C[C@H]4[C@@]1(O3)[C@H](C)[C@H]2OC(=O)c1ccccc1` [YH-19] was tested, and the IC50 [1] was 0.136 µM, the “inhibitory activity” value [7] was “significant decrease in activity” and the IC50 [4] was 0.0644 µM.
With `C=C(C)[C@@]12OC3(/C=C/C=C/CCCCC)O[C@@H]1[C@@H]1[C@@H]4O[C@]4(COC(=O)c4ccccc4)[C@@H](O)[C@]4(O)C(=O)C(C)=C[C@H]4[C@@]1(O3)[C@H](C)[C@H]2OC(=O)c1ccccc1` [YH-20] the IC50 [1] was 5.76 µM, the “inhibitory activity” value [7] was “significant decrease in activity” and the IC50 [4] was 1.58 µM.
With `C=C(C)[C@@]12OC3(/C=C/C=C/CCCCC)O[C@@H]1[C@@H]1[C@@H]4O[C@]4(CO)[C@@H](O)[C@]4(O)C(=O)C(C)=C[C@H]4[C@@]1(O3)[C@H](C)[C@H]2OC(C)=O` [YH-22] the “inhibitory activity” value [7] was “most prominent; also recorded: more cytotoxic” and the IC50 ([5]; Homo sapiens, RWPE-1, read-out: Normal cells RWPE-1 (IC50)) was 5.89 µM.
